Data as given in the NIST ThermoML archive (doi:10.1021/acs.jced.8b00011).
Values joined by “and” are separate entries in the source; they are usually repeats but may differ in a detail not shown here. Identical values can stand only once. ± gives the expanded uncertainty stated by the source.

Conditions: Liquid; for electrical conductivity: electrochemical impedance spectroscopy; for mass density: Vibrating tube method

CCCCC[P+](CC)(CC)CC.O=S(=O)([N-]S(=O)(=O)C(F)(F)F)C(F)(F)F
Conditions	electrical conductivity [S/m]	viscosity
298.15 K, 60200 kPa, Falling or rolling sphere viscometry	–	188.2 ± 8.8 mPa·s
298.15 K, 76900 kPa, Frequency=0 MHz	0.0691 ± 0.0014	–
298.15 K, 80100 kPa, Falling or rolling sphere viscometry	–	237.6 ± 13 mPa·s
298.15 K, 99300 kPa, Frequency=0 MHz	0.0551 ± 0.0011	–
298.15 K, 100600 kPa, Falling or rolling sphere viscometry	–	299.8 ± 18 mPa·s
298.15 K, 120600 kPa, Falling or rolling sphere viscometry	–	374.6 ± 26 mPa·s
298.15 K, 120900 kPa, Falling or rolling sphere viscometry	–	375.1 ± 26 mPa·s
298.15 K, 126100 kPa, Frequency=0 MHz	0.0413 ± 0.00083	–
298.15 K, 140500 kPa, Falling or rolling sphere viscometry	–	464.2 ± 35 mPa·s
298.15 K, 149100 kPa, Frequency=0 MHz	0.0333 ± 0.00067	–
298.15 K, 160800 kPa, Falling or rolling sphere viscometry	–	575.1 ± 48 mPa·s
298.15 K, 180200 kPa, Falling or rolling sphere viscometry	–	703.8 ± 63 mPa·s
298.15 K, 199500 kPa, Falling or rolling sphere viscometry	–	855.3 ± 82 mPa·s
298.15 K, 225400 kPa, Frequency=0 MHz	0.0159 ± 0.00032	–
298.15 K, 249800 kPa, Frequency=0 MHz	0.0127 ± 0.00026	–
298.16 K, 600 kPa, Frequency=0 MHz	0.164 ± 0.0034	–
298.16 K, 1600 kPa, Frequency=0 MHz	0.162 ± 0.0032	–
298.16 K, 201000 kPa, Frequency=0 MHz	0.0201 ± 0.0004	–
303.15 K, 100 kPa, Concentric cylinders viscometry	–	67.86 ± 1.5 mPa·s
303.15 K, 100 kPa, Falling or rolling sphere viscometry	–	68.41 ± 2.4 mPa·s
303.15 K, 700 kPa, Falling or rolling sphere viscometry	–	68.43 ± 2.3 mPa·s
303.15 K, 10600 kPa, Falling or rolling sphere viscometry	–	78.1 ± 2.1 mPa·s
303.15 K, 20600 kPa, Falling or rolling sphere viscometry	–	88.77 ± 2.6 mPa·s
303.15 K, 30400 kPa, Falling or rolling sphere viscometry	–	100.3 ± 3.1 mPa·s
303.15 K, 40600 kPa, Falling or rolling sphere viscometry	–	113.6 ± 3.9 mPa·s
303.15 K, 50700 kPa, Falling or rolling sphere viscometry	–	128 ± 4.7 mPa·s
303.15 K, 60800 kPa, Falling or rolling sphere viscometry	–	144.1 ± 5.7 mPa·s
303.15 K, 80300 kPa, Falling or rolling sphere viscometry	–	179.8 ± 8.2 mPa·s
303.15 K, 100100 kPa, Falling or rolling sphere viscometry	–	223.2 ± 12 mPa·s
313.15 K, 100 kPa, Concentric cylinders viscometry	–	43.97 ± 0.99 mPa·s
313.15 K, 100 kPa, Falling or rolling sphere viscometry	–	44.35 ± 2.3 mPa·s [middle of 5 runs]
313.15 K, 700 kPa, Falling or rolling sphere viscometry	–	44.4 ± 2.8 mPa·s
313.15 K, 10600 kPa, Falling or rolling sphere viscometry	–	50.22 ± 1.1 mPa·s
313.15 K, 20600 kPa, Falling or rolling sphere viscometry	–	56.64 ± 1.3 mPa·s
313.15 K, 30500 kPa, Falling or rolling sphere viscometry	–	63.64 ± 1.5 mPa·s
313.15 K, 40500 kPa, Falling or rolling sphere viscometry	–	71.42 ± 1.8 mPa·s
313.15 K, 50600 kPa, Falling or rolling sphere viscometry	–	79.95 ± 2.2 mPa·s
313.15 K, 60600 kPa, Falling or rolling sphere viscometry	–	89.14 ± 2.6 mPa·s
313.15 K, 80300 kPa, Falling or rolling sphere viscometry	–	109.9 ± 3.7 mPa·s
313.15 K, 99900 kPa, Falling or rolling sphere viscometry	–	134.5 ± 5.1 mPa·s
323.14 K, 800 kPa, Frequency=0 MHz	0.434 ± 0.0087	–
323.14 K, 3200 kPa, Frequency=0 MHz	0.423 ± 0.0085	–
323.14 K, 101600 kPa, Frequency=0 MHz	0.17 ± 0.0034	–
323.14 K, 150900 kPa, Frequency=0 MHz	0.113 ± 0.0023	–
323.14 K, 175500 kPa, Frequency=0 MHz	0.0922 ± 0.0019	–
323.15 K, 100 kPa, Concentric cylinders viscometry	–	30.06 ± 0.68 mPa·s
323.15 K, 100 kPa, Falling or rolling sphere viscometry	–	29.89 ± 1.3 mPa·s [middle of 5 runs]
323.15 K, 100 kPa, Frequency=0 MHz	0.437 ± 0.0092	–
323.15 K, 700 kPa, Falling or rolling sphere viscometry	–	30.1 ± 1.6 mPa·s
323.15 K, 2200 kPa, Frequency=0 MHz	0.427 ± 0.0086	–

Conditions	electrical conductivity	mass density
303.15 K, 100 kPa	–	1298.32 ± 1.3 kg/m3 [middle of 6 runs]
303.15 K, 101.33 kPa	0.208 S/m and 0.207 S/m	–
303.15 K, 1000 kPa	–	1298.99 ± 1.3 kg/m3
303.15 K, 5000 kPa	–	1301.97 ± 1.3 kg/m3
303.15 K, 10000 kPa	–	1305.55 ± 1.3 kg/m3
303.15 K, 15000 kPa	–	1309.08 ± 1.4 kg/m3
303.15 K, 20000 kPa	–	1312.5 ± 1.4 kg/m3
303.15 K, 25000 kPa	–	1315.86 ± 1.4 kg/m3
303.15 K, 30000 kPa	–	1319.11 ± 1.4 kg/m3
303.15 K, 35000 kPa	–	1322.31 ± 1.5 kg/m3
303.15 K, 40000 kPa	–	1325.42 ± 1.5 kg/m3
303.15 K, 45000 kPa	–	1328.53 ± 1.6 kg/m3
303.15 K, 50000 kPa	–	1331.53 ± 1.6 kg/m3
308.15 K, 101.33 kPa	0.256 S/m and 0.255 S/m	–
313.15 K, 100 kPa	–	1290.13 ± 1.8 kg/m3 [middle of 6 runs]
313.15 K, 101.33 kPa	0.31 S/m	–
313.15 K, 1000 kPa	–	1291.1 ± 1.3 kg/m3
313.15 K, 5000 kPa	–	1294.18 ± 1.3 kg/m3
313.15 K, 10000 kPa	–	1297.91 ± 1.3 kg/m3
313.15 K, 15000 kPa	–	1301.54 ± 1.3 kg/m3
313.15 K, 20000 kPa	–	1305.07 ± 1.4 kg/m3
313.15 K, 25000 kPa	–	1308.48 ± 1.4 kg/m3
313.15 K, 30000 kPa	–	1311.85 ± 1.4 kg/m3
313.15 K, 35000 kPa	–	1315.16 ± 1.5 kg/m3
313.15 K, 40000 kPa	–	1318.37 ± 1.5 kg/m3
313.15 K, 45000 kPa	–	1321.53 ± 1.5 kg/m3
313.15 K, 50000 kPa	–	1324.64 ± 1.6 kg/m3
318.15 K, 101.33 kPa	0.371 S/m and 0.372 S/m	–
323.15 K, 100 kPa	–	1281.76 ± 1.8 kg/m3 [middle of 6 runs]
323.15 K, 101.33 kPa	0.437 S/m and 0.44 S/m and 0.441 S/m	–
323.15 K, 1000 kPa	–	1282.87 ± 1.3 kg/m3
